Source: article PMC8992272, “Stabilities of Three Key Biological Trisulfides with Implications for Their Roles in the Release of Hydrogen Sulfide and Bioaccumulation of Sulfane Sulfur” (ACS Omega, 2022)

Assays:
[1] = Stability in nonbuffered D2O at room and elevated temperature (1H NMR); type: physicochemical
Description: N-Acetylcysteine trisulfide (24.3 mg, 61 μmol) was dissolved in 500 μL of D2O and placed in a 40 °C oil bath. The ^1H NMR spectra were taken periodically to track degradation.
N-Acetylcysteine trisulfide (24.3 mg, 61 μmol) was dissolved in 500 μL of D2O and placed in a 60 °C oil bath. The ^1H NMR spectra were taken periodically to track degradation.
N-Acetylcysteine tetrasulfide (8.0 mg, 21 μmol) was dissolved in 600 μL of D2O. The ^1H NMR spectra were taken periodically to track degradation.
N-Acetylcysteine tetrasulfide (10.0 mg, 26 μmol) was dissolved in 600 μL of D2O and placed in a 40 °C oil bath. The ^1H NMR spectra were taken periodically to track degradation.

[2] = Kinetics of degradation of trisulfides in the presence of a thiol (1H NMR); type: physicochemical; conditions: water, NAC added, vial uncapped to allow H2S to evaporate, after 1 day
Description: To investigate the rate of reaction of trisulfides with an added thiol and to characterize the degradation products, 5 mM trisulfides of cysteine, glutathione, and NAC were separately added to […] For instance, 5 equiv of cysteine was added to cysteine trisulfide and 5 equiv of NAC was added to NAC trisulfide. The pH was buffered to a pH of 7.0 to ensure that each trisulfide was soluble and to closely mimic in vivo pH.
Cysteine trisulfide (0.7 mg, 2.6 μmol) was dissolved in 500 μL of D2O buffered to pH 7.0, yielding a 5 mM solution. Cysteine (1.5 mg, 12.4 μmol) was added, and the ^1H NMR spectra were periodically obtained to track degradation.
Glutathione trisulfide (1.6 mg, 2.6 μmol) was added to 500 μL of D2O buffered to a pH of 7.0, yielding a 5 mM solution. Glutathione (3.8 mg, 12.4 μmol) was added, and the ^1H NMR spectra were obtained periodically to track degradation.
N-Acetylcysteine trisulfide (1.0 mg, 2.6 μmol) was dissolved in 500 μL of D2O buffered to pH 7.0, yielding a 5 mM solution. N-Acetylcysteine (2.1 mg, 12.4 μmol) was added, and the ^1H NMR spectra were obtained periodically to track degradation.
Cysteine trisulfide (0.7 mg, 2.6 μmol) was dissolved in 500 μL of D2O buffered to pH 7.0, yielding a 5 mM solution. tert-Butanol (0.8 μL, 2.6 μmol) was added as an internal standard. […]

CC(=O)N[C@@H](CSSSC[C@H](NC(C)=O)C(=O)O)C(=O)O [NAC trisulfide, N-Acetylcysteine Trisulfide]
degraded ([1]; 60 °C, in 3 days): 74% | degradation ([1]; water, 40 °C oil bath, after 10 days): No noticeable degradation | trisulfide remaining [2]: no NAC trisulfide was observed
